This is an account of results in publication PMC12621043, “Un-LOK-ing a New Approach for Conformational Selective Targeting of STK10 (LOK)” (ACS Medicinal Chemistry Letters, 2025).

Assay [1] addresses T1, DYRK1AA (Homo sapiens, UniProt Q13627).
T1 construct: purchased in-house DSF kinase panel (SGC-style construct names; the trailing letter is the construct ID)
Nature of the assay: DSF Tm panel. Type of assay: binding. Particulars: 10 μM compound.

Assay [2] deals with RPS6KA1A. The assay can be described thus: DSF Tm panel. Type of assay: binding. As to conditions: 10 μM compound.
The target of assay [3] is T2, MST4A (Homo sapiens, UniProt Q9P289).
T2 construct: purchased in-house DSF kinase panel (SGC-style construct names; the trailing letter is the construct ID)
T2 sequence (Q9P289 1-300): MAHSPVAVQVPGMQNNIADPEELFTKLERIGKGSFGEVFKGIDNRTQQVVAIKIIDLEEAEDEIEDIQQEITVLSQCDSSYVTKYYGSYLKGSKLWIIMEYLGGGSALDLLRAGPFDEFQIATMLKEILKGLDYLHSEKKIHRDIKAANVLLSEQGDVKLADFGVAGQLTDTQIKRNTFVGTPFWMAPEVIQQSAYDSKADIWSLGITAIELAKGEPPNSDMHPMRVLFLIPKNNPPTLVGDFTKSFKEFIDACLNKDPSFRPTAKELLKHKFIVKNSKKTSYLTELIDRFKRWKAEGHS
Nature of the assay: DSF Tm panel. As to conditions: 10 μM compound. Type of assay: binding.

The target in assay [4] is T3, CLK1A (Homo sapiens, UniProt P49759).
T3 construct: purchased in-house DSF kinase panel (SGC-style construct names; the trailing letter is the construct ID)
T3 sequence (P49759 148-484): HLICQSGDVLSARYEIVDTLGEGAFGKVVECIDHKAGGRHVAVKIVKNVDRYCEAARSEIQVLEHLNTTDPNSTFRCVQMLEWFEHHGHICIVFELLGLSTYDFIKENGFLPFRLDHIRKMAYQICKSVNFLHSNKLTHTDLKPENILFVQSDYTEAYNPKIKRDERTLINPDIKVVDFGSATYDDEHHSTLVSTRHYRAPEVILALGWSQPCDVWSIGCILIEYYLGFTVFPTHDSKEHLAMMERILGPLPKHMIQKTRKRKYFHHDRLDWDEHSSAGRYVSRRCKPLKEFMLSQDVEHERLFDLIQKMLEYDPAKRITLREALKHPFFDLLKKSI
Nature of the assay: DSF Tm panel. As to conditions: 10 μM compound. Type of assay: binding.

In assay [5] the target is T4, DAPK1 (DAPK1A) (Homo sapiens, UniProt P53355).
T4 construct: purchased in-house DSF kinase panel (SGC-style construct names; the trailing letter is the construct ID)
T4 sequence (P53355 1-285): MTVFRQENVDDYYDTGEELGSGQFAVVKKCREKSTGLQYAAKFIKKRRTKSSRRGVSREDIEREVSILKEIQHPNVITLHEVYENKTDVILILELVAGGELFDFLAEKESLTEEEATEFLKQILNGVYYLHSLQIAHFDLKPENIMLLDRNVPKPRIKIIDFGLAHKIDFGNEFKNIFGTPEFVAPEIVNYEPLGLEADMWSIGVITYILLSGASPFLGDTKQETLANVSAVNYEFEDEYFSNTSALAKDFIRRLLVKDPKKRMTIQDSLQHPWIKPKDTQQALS
Nature of the assay: DSF Tm panel. Type of assay: binding. Particulars: 10 μM compound.

The target of assay [6] is T5, CASKA (Homo sapiens, UniProt O14936).
T5 construct: purchased in-house DSF kinase panel (SGC-style construct names; the trailing letter is the construct ID)
T5 sequence (O14936 12-276): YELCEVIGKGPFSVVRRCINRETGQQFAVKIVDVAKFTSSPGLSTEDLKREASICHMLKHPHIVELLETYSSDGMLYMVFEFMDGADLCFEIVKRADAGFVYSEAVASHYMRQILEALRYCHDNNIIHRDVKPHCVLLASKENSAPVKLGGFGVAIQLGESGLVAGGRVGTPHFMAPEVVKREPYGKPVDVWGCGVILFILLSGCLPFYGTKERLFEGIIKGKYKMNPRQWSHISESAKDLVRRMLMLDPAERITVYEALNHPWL
Nature of the assay: DSF Tm panel. Type of assay: binding. As to conditions: 10 μM compound.

The target in assay [7] is T6, SRPK1A (Homo sapiens, UniProt Q96SB4).
T6 construct: purchased in-house DSF kinase panel (SGC-style construct names; the trailing letter is the construct ID)
T6 sequence (Q96SB4 80-653): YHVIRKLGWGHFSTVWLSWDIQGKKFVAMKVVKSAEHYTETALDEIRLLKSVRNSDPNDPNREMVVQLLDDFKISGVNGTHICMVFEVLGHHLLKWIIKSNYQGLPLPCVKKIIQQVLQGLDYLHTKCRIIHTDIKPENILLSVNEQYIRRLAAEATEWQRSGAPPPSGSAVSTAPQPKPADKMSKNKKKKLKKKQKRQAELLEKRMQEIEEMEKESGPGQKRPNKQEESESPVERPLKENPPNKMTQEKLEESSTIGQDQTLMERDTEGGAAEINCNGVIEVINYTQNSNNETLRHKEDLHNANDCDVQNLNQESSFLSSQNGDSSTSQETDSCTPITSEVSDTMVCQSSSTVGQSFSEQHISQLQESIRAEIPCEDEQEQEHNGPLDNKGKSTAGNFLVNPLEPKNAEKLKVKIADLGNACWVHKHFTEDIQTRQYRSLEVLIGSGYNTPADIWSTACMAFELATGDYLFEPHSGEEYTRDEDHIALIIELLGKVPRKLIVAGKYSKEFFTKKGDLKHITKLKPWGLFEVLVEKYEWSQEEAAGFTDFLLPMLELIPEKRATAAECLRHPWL
The assay can be described thus: DSF Tm panel. Type of assay: binding. Particulars: 10 μM compound.

Assay [8] concerns the target T7, SLK (Homo sapiens, UniProt Q9H2G2). Nature of the assay: NanoBRET target engagement assay. Type of assay: cell-based. Also on record: has a greater impact on the full-length protein than on the kinase domains; host or cells: HEK293T (ATCC CRL-3216). As to conditions: HEK293T cells.
Assay [9] has as its target T8, FGFR2A (Homo sapiens, UniProt P21802).
T8 construct: purchased in-house DSF kinase panel (SGC-style construct names; the trailing letter is the construct ID)
Nature of the assay: DSF Tm panel. Type of assay: binding. Particulars: 10 μM compound.

In assay [10] the target is T9, BRAFA (Homo sapiens, UniProt P15056).
T9 construct: purchased in-house DSF kinase panel (SGC-style construct names; the trailing letter is the construct ID)
T9 sequence (P15056 448-723): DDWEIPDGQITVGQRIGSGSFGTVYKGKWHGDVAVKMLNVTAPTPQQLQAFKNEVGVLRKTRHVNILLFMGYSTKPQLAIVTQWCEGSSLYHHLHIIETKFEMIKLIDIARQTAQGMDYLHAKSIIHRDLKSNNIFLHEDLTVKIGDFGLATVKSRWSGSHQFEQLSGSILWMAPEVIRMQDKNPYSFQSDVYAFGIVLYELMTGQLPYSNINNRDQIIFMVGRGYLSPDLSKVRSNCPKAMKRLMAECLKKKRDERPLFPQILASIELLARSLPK
Nature of the assay: DSF Tm panel. Type of assay: binding. As to conditions: 10 μM compound.

Assay [11] deals with T10, CDKL1A (Homo sapiens, UniProt Q00532).
T10 construct: purchased in-house DSF kinase panel (SGC-style construct names; the trailing letter is the construct ID)
T10 sequence (Q00532 1-303): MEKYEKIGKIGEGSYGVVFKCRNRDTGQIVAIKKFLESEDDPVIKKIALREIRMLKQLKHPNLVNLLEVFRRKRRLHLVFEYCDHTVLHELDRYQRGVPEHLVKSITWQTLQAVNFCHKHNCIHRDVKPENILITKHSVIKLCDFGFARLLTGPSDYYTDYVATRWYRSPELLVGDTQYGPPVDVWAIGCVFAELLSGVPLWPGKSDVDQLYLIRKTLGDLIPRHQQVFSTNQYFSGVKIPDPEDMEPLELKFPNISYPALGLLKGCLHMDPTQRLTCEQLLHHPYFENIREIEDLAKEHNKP
Nature of the assay: DSF Tm panel. Type of assay: binding. As to conditions: 10 μM compound.

Assay [12] concerns the target T11, MAPK1A (Homo sapiens, UniProt P28482).
T11 construct: purchased in-house DSF kinase panel (SGC-style construct names; the trailing letter is the construct ID)
The assay can be described thus: DSF Tm panel. Particulars: 10 μM compound. Type of assay: binding.

The target in assay [13] is T12, PKMYT1A (Homo sapiens, UniProt Q99640).
T12 construct: purchased in-house DSF kinase panel (SGC-style construct names; the trailing letter is the construct ID)
T12 sequence (Q99640 75-362): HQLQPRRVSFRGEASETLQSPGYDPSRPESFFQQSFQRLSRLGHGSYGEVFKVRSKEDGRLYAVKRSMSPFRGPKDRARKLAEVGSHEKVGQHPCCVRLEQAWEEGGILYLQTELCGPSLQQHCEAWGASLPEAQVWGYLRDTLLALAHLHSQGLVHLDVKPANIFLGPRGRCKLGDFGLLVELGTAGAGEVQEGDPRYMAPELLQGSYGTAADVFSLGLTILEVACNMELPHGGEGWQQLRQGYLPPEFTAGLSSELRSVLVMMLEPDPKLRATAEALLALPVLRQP
Nature of the assay: DSF Tm panel. Type of assay: binding. As to conditions: 10 μM compound.

Assay [14] deals with T13, CDK2A (Homo sapiens, UniProt P24941).
T13 construct: purchased in-house DSF kinase panel (SGC-style construct names; the trailing letter is the construct ID)
The assay can be described thus: DSF Tm panel. Type of assay: binding. As to conditions: 10 μM compound.

Assay [15] has as its target T14, CAMKK2B (Homo sapiens, UniProt Q96RR4).
T14 construct: purchased in-house DSF kinase panel (SGC-style construct names; the trailing letter is the construct ID)
The assay can be described thus: DSF Tm panel. Type of assay: binding. As to conditions: 10 μM compound.

Assay [16] concerns the target T15, MST3A (Homo sapiens, UniProt Q9Y6E0).
T15 construct: purchased in-house DSF kinase panel (SGC-style construct names; the trailing letter is the construct ID)
The assay can be described thus: DSF Tm panel. Type of assay: binding. As to conditions: 10 μM compound.

Assay [17] has as its target T16, OSR1A (Homo sapiens, UniProt O95747).
T16 construct: purchased in-house DSF kinase panel (SGC-style construct names; the trailing letter is the construct ID)
The assay can be described thus: DSF Tm panel. Type of assay: binding. As to conditions: 10 μM compound.

For assay [18], the target named is T17, GPRK5A (Homo sapiens, UniProt P34947).
T17 construct: purchased in-house DSF kinase panel (SGC-style construct names; the trailing letter is the construct ID)
T17 sequence (P34947 186-514): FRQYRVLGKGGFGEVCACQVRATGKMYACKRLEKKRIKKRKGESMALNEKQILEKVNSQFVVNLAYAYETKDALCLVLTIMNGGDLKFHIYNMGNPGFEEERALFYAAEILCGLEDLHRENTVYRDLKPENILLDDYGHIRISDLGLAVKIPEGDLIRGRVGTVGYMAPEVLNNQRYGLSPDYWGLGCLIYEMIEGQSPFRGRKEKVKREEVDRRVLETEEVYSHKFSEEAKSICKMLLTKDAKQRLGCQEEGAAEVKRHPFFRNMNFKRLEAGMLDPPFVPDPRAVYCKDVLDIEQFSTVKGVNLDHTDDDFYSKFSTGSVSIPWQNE
Nature of the assay: DSF Tm panel. Type of assay: binding. Particulars: 10 μM compound.

For assay [19], the target named is T18, STK10 (Homo sapiens, UniProt O94804).
T18 construct: purchased in-house DSF kinase panel (SGC-style construct names; the trailing letter is the construct ID)
T18 sequence (O94804 18-317 limits assumed): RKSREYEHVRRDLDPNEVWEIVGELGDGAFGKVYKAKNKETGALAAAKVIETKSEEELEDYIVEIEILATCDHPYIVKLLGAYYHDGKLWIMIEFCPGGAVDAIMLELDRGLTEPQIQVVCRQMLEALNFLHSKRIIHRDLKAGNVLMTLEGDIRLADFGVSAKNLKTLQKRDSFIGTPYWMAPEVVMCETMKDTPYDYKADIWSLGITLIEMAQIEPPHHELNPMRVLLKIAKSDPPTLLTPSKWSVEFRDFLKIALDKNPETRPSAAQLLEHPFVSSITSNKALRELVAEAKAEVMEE
Nature of the assay: PhosphoSens in vitro activity assay. As to conditions: ATP 160 μM. Type of assay: biochemical.

Assay [20] addresses T19, NEK1A (Homo sapiens, UniProt Q96PY6).
T19 construct: purchased in-house DSF kinase panel (SGC-style construct names; the trailing letter is the construct ID)
T19 sequence (Q96PY6 1-328): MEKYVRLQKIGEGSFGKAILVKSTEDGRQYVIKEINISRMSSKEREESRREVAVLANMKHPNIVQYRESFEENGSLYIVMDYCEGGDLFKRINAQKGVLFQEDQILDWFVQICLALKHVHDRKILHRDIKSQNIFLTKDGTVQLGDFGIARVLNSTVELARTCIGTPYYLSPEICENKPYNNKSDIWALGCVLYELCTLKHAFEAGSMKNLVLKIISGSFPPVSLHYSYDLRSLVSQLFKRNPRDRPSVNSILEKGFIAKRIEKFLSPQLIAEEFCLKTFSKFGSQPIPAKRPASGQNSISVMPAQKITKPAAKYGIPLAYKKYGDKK
The assay can be described thus: DSF Tm panel. Particulars: 10 μM compound. Type of assay: binding.

Assay [21] addresses T20, DAPK3 (DAPK3A) (Homo sapiens, UniProt O43293).
T20 construct: purchased in-house DSF kinase panel (SGC-style construct names; the trailing letter is the construct ID)
Nature of the assay: DSF Tm panel. Particulars: 10 μM compound. Type of assay: binding.

For assay [22], the target named is T7, SLK. The assay can be described thus: PhosphoSens in vitro activity assay. Type of assay: biochemical. Particulars: ATP 150 μM.
Assay [23] has as its target T21, PCTK1A (Homo sapiens, UniProt Q00536).
T21 construct: purchased in-house DSF kinase panel (SGC-style construct names; the trailing letter is the construct ID)
Nature of the assay: DSF Tm panel. Type of assay: binding. Particulars: 10 μM compound.

In assay [24] the target is T22, STK4 (STK4A) (Homo sapiens, UniProt Q13043).
T22 construct: purchased in-house DSF kinase panel (SGC-style construct names; the trailing letter is the construct ID)
T22 sequence (Q13043 1-311): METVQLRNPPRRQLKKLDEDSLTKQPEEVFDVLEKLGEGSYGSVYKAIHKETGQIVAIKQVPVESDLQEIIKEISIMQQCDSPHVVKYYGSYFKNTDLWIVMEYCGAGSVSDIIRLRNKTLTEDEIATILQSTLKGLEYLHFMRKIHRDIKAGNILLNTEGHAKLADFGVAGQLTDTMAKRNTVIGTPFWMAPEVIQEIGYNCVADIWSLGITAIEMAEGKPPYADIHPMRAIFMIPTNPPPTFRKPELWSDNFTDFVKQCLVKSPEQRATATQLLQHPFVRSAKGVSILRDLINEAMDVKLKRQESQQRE
The assay can be described thus: DSF Tm panel. Type of assay: binding. Particulars: 10 μM compound.

T11 sequence (P28482 whole entry): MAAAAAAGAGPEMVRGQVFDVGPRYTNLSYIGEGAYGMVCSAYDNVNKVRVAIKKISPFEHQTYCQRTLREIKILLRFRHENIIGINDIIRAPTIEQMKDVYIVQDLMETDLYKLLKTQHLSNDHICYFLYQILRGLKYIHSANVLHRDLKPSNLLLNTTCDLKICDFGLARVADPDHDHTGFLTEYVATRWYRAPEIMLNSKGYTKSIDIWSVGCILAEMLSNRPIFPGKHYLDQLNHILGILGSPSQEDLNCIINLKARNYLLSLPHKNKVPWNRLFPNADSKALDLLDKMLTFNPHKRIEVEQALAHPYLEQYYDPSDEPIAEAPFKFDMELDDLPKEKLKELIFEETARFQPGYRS
T21 sequence (Q00536 163-478): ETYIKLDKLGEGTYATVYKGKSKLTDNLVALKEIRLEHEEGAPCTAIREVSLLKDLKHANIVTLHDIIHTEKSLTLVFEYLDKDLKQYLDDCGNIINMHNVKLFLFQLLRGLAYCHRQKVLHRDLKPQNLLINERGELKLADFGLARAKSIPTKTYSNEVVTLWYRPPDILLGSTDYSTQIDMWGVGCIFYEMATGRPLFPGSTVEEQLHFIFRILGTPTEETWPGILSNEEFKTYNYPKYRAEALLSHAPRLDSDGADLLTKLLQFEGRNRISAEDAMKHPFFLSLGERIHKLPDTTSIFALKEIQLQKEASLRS
T16 sequence (O95747 17-291): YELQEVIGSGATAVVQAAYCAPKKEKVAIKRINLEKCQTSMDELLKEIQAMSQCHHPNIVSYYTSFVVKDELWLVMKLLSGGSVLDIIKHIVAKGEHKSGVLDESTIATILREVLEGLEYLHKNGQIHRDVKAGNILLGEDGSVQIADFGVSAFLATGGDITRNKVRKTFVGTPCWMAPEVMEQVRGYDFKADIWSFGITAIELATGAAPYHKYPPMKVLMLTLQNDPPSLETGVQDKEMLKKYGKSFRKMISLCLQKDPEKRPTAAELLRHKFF
T15 sequence (Q9Y6E0 whole entry): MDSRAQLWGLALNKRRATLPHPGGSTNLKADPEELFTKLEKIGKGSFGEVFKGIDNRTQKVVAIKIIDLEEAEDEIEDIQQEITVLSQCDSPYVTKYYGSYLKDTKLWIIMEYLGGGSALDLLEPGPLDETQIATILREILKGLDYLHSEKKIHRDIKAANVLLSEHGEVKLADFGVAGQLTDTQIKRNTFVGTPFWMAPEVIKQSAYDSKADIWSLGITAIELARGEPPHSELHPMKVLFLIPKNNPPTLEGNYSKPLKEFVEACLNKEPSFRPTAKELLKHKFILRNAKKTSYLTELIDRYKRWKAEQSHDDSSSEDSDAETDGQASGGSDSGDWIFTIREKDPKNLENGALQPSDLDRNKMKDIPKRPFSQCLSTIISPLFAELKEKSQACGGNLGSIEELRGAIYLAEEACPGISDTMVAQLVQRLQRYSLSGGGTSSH
T14 sequence (Q96RR4 161-449): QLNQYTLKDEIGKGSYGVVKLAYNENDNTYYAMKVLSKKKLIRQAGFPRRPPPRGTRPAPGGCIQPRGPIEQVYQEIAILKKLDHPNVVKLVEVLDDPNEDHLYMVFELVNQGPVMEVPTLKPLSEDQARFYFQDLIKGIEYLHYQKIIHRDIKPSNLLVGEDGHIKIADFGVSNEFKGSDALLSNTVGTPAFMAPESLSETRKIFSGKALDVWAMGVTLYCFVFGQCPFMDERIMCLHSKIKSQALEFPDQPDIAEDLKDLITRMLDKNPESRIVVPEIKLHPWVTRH
T20 sequence (O43293 whole entry): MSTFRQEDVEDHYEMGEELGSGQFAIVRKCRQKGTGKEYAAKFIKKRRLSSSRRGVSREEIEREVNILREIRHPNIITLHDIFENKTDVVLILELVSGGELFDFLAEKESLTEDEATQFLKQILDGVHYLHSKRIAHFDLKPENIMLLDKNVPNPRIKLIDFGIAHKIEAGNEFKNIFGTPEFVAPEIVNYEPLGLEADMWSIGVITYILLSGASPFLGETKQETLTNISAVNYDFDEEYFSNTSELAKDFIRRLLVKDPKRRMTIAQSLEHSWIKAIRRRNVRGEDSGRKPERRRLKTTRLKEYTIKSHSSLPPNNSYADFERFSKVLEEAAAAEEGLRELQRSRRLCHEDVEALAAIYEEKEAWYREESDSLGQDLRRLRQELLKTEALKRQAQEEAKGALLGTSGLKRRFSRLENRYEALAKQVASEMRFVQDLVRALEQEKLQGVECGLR

In the case of `COc1cc(CNC(=O)Nc2ccc3cc2OCCOCCNc2ccn4ncc-3c4n2)ccc1F` [compound 33], the thermal shift (ΔTm) at 10 µM in [1] was found to be 0.9 °C; in assay [3], 1.2 °C; in [4], 4.7 °C; in [5], 0.5 °C; in assay [6], 0.9 °C; in [7], 0 °C. For the same compound, the shift in melting temperature (ΔTm) at 10 µM was 3.7 °C in assay [9]; -0.6 °C in assay [10]; 0.5 °C in [11]; 1.6 °C in assay [12]; 0.2 °C in [13]; 2.7 °C in [14]. Further, the ΔTm at 10 µM in [15] is 3.2 °C; in assay [16], -5.3 °C; in assay [17] it was 1.5 °C; in assay [18], 2.2 °C; in [20], -0.1 °C; in assay [21], 2.1 °C. For the same compound, the ΔTm at 10 µM turned out to be 1.7 °C in assay [23] and 3.8 °C in assay [24]. Further, in assay [2], the “ΔTm RPS6KA1A” value was 0,5 °C. The compound also had a 50% effective concentration (EC50) in [8] of more than 50 µM. Further, the IC50 in assay [19] was 2.34 ± 0.79 µM; in assay [22], more than 20 µM.
`C[C@H](NC(=O)Nc1ccc2cc1OCCOCCNc1ccn3ncc-2c3n1)c1ccccc1` [compound 34]: the shift in melting temperature (ΔTm) at 10 µM in assay [1] was -0.1 °C; in [3], 0.4 °C; in assay [4], 3.1 °C; in assay [5], 0.5 °C; in assay [6], 1 °C; in assay [7], -0.1 °C. In addition, the ΔTm at 10 µM in assay [9] was 2.8 °C; in assay [10] it was -0.5 °C; in [11] it was 0.2 °C; in [12] it was 0.7 °C; in assay [13] it was -0.1 °C; in assay [14] it was 1 °C. Besides, the ΔTm at 10 µM in assay [15] was 0.6 °C; in assay [16], -7.8 °C; in assay [17], 1.2 °C; in assay [18] it was 0.2 °C; in assay [20] it was -0.4 °C; in [21], 1.8 °C. The ΔTm at 10 µM in [23] was found to be 0.5 °C; in assay [24], 2.7 °C. Also, the “ΔTm RPS6KA1A” value in assay [2] was 0,4 °C. Further, the EC50 in [8] was more than 50 µM. Further, the 50% inhibitory concentration (IC50) in assay [19] was 10.2 µM; in [22], more than 20 µM.

As usually defined, the ΔTm is the shift of the melting midpoint relative to a reference. One may read the EC50 as the concentration that produces a half-maximal response. High values mean lower potency in that assay, low ones higher potency in that assay. Usually IC50 stands for the concentration that gives 50% inhibition. High values mean weaker potency in that assay, low ones greater potency in that assay.
